Active and inactive are the calls of the source. The rule behind the calls is not given here. A value given as a limit tells only on which side of the number the result lay.

A word on the MIC: it is the least concentration at which growth counts as inhibited.

For data set [1], the system named is Mycobacteroides abscessus. Description: Antimycobacterial activity against Mycobacterium abscessus ATCC 19977 assessed as inhibition zone diameter at 3.125 ng after 3 days by disc diffusion method. It is filed as functional.
The nature of data set [2]: Antimycobacterial activity against Mycobacterium abscessus subsp. massiliense assessed as reduction in microbial growth by CLSI method. The conditions noted are these: Mycobacteroides abscessus. The data set is classed as functional.
Data set [3] in a line: Antimycobacterial activity against Mycobacterium abscessus subsp. bolletii assessed as reduction in microbial growth by CLSI method. To be noted: Mycobacteroides abscessus. The data set is classed as functional.
Data set [4] has as its system Mycolicibacterium fortuitum. Description: Antimycobacterial activity against Mycobacterium fortuitum assessed as reduction in microbial growth by CLSI method. It is filed as functional.
Data set [5] concerns Mycobacteroides chelonae. Description: Antimycobacterial activity against Mycobacterium chelonae assessed as reduction in microbial growth by CLSI method. The data set is classed as functional.
Data set [6] can be described thus: Antimycobacterial activity against Mycobacterium abscessus subsp. abscessus assessed as reduction in microbial growth by CLSI method. It is filed as functional. The conditions noted are these: Mycobacteroides abscessus.
Data set [7] relates to Mycolicibacterium smegmatis. The experiment in a line: Antimycobacterial activity against Mycobacterium smegmatis assessed as reduction in microbial growth by CLSI method. The data set is classed as functional.
For data set [8], the system named is Mycobacteroides abscessus. Description: Antimycobacterial activity against Mycobacterium abscessus ATCC 19977 assessed as inhibition zone diameter at 800 ng after 3 days by disc diffusion method. The data set is classed as functional. For orientation: In agar diffusion tests the substance spreads into inoculated agar from a disc or well.
In data set [9] the test system is Mycobacteroides abscessus. The experiment in a line: Antimycobacterial activity against Mycobacterium abscessus ATCC 19977 assessed as inhibition zone diameter at 400 ng after 3 days by disc diffusion method. It is filed as functional.
Data set [10] has as its system Mycobacteroides abscessus. The experiment in a line: Antimycobacterial activity against Mycobacterium abscessus ATCC 19977 assessed as inhibition zone diameter at 200 ng after 3 days by disc diffusion method. It is filed as functional.
Data set [11] deals with Mycobacteroides abscessus. The experiment in a line: Antimycobacterial activity against Mycobacterium abscessus ATCC 19977 assessed as inhibition zone diameter at 100 ng after 3 days by disc diffusion method. The data set is classed as functional.
The subject of data set [12] is Mycobacteroides abscessus. Description: Antimycobacterial activity against Mycobacterium abscessus ATCC 19977 assessed as inhibition zone diameter at 50 ng after 3 days by disc diffusion method. The data set is classed as functional.
Data set [13] relates to Mycobacteroides abscessus. Description: Antimycobacterial activity against Mycobacterium abscessus ATCC 19977 assessed as inhibition zone diameter at 25 ng after 3 days by disc diffusion method. It is filed as functional.
In data set [14] the test system is Mycobacteroides abscessus. The experiment in a line: Antimycobacterial activity against Mycobacterium abscessus ATCC 19977 assessed as inhibition zone diameter at 12.5 ng after 3 days by disc diffusion method. It is filed as functional.
Data set [15] has as its system Mycobacteroides abscessus. The experiment in a line: Antimycobacterial activity against Mycobacterium abscessus ATCC 19977 assessed as inhibition zone diameter at 6.25 ng after 3 days by disc diffusion method. The data set is classed as functional.
In data set [16] the test system is Mycobacteroides abscessus. Description: Antimycobacterial activity against Mycobacterium abscessus ATCC 19977 assessed as inhibition zone diameter at 1.56 ng after 3 days by disc diffusion method. The data set is classed as functional.
The subject of data set [17] is Mycobacteroides abscessus. The experiment in a line: Antimycobacterial activity against Mycobacterium abscessus FM0058 clinical isolate assessed as inhibition zone diameter at 800 ng after 3 days by disc diffusion method. The data set is classed as functional.
Data set [18] has as its system Mycobacteroides abscessus. Description: Antimycobacterial activity against Mycobacterium abscessus FM0058 clinical isolate assessed as inhibition zone diameter at 400 ng after 3 days by disc diffusion method. It is filed as functional.
Data set [19] deals with Mycobacteroides abscessus. The experiment in a line: Antimycobacterial activity against Mycobacterium abscessus FM0058 clinical isolate assessed as inhibition zone diameter at 200 ng after 3 days by disc diffusion method. The data set is classed as functional.
In data set [20] the test system is Mycobacteroides abscessus. The experiment in a line: Antimycobacterial activity against Mycobacterium abscessus FM0058 clinical isolate assessed as inhibition zone diameter at 100 ng after 3 days by disc diffusion method. The data set is classed as functional.
The test system of data set [21] is Mycobacteroides abscessus. Description: Antimycobacterial activity against Mycobacterium abscessus FM0058 clinical isolate assessed as inhibition zone diameter at 50 ng after 3 days by disc diffusion method. It is filed as functional.
In data set [22] the test system is Mycobacteroides abscessus. Description: Antimycobacterial activity against Mycobacterium abscessus FM0058 clinical isolate assessed as inhibition zone diameter at 25 ng after 3 days by disc diffusion method. It is filed as functional.
Data set [23] has as its system Mycobacteroides abscessus. Description: Antimycobacterial activity against Mycobacterium abscessus FM0058 clinical isolate assessed as inhibition zone diameter at 12.5 ng after 3 days by disc diffusion method. The data set is classed as functional.
The test system of data set [24] is Mycobacteroides abscessus. Description: Antimycobacterial activity against Mycobacterium abscessus FM0058 clinical isolate assessed as inhibition zone diameter at 6.25 ng after 3 days by disc diffusion method. The data set is classed as functional.
Data set [25] relates to Mycobacteroides abscessus. Description: Antimycobacterial activity against Mycobacterium abscessus FM0058 clinical isolate assessed as inhibition zone diameter at 3.125 ng after 3 days by disc diffusion method. The data set is classed as functional.
Data set [26] deals with Mycobacteroides abscessus. Description: Antimycobacterial activity against Mycobacterium abscessus FM0058 clinical isolate assessed as inhibition zone diameter at 1.56 ng after 3 days by disc diffusion method. The data set is classed as functional.
The test system of data set [27] is Mycobacteroides abscessus. Description: Antimycobacterial activity against Mycobacterium abscessus ATCC 19977 assessed as inhibition zone diameter at <3 ng after 3 days by disc diffusion method. It is filed as functional, organism-based.
The subject of data set [28] is Mycobacteroides abscessus. Description: Antimycobacterial activity against Mycobacterium abscessus FM0058 clinical isolate assessed as inhibition zone diameter at <3 ng after 3 days by disc diffusion method. It is filed as functional, organism-based.
The nature of data set [29]: Drug metabolism in Mycobacterium abscessus ATCC 19977 assessed as adenine ribosylated diphosphate derivative formation by LC/MS analysis. The data set is classed as ADME. The conditions noted are these: Mycobacteroides abscessus.

Regarding `CO[C@H]1/C=C/O[C@@]2(C)Oc3c(C)c(O)c4c(c3C2=O)C(=O)C(N2CCOCC2)=C(NC(=O)/C(C)=C\C=C\[C@H](C)[C@H](O)[C@@H](C)[C@@H](O)[C@@H](C)[C@H](OC(=O)NCc2cc(-c3ccccn3)no2)[C@@H]1C)C4=O`, the “diameter of the inhibition zone (DIZ)” value in [1] stood at 0 mm; in data set [8], 27 mm; in [9], 24 mm; in data set [10], 20 mm; in data set [11] it was 16 mm; in [12], 14 mm. The “diameter of the inhibition zone (DIZ)” value in [13] was 0 mm; in [14], 0 mm; in data set [15], 0 mm; in data set [16], 0 mm; in data set [17] it was above 30 mm; in data set [18] it was 30 mm. Moreover, the “diameter of the inhibition zone (DIZ)” value amounted to 25 mm in data set [19]; 20 mm in data set [20]; 9 mm in data set [21]; 0 mm in data set [22]; 0 mm in data set [23]; 0 mm in data set [24]. Also, the “diameter of the inhibition zone (DIZ)” value in [25] and in data set [26] was 0 mm in each case. The MIC is 8 µg/mL in [2]; 8 µg/mL in [3]; 1 µg/mL in [4]; 64 µg/mL in data set [5]; 8 µg/mL in data set [6]; 0.5 µg/mL in [7]. The “diameter of the inhibition zone (DIZ)” value in [27] and in data set [28] was “inactive” in each case.

Take `COc1ccc(CNC(=O)O[C@H]2[C@H](C)[C@H](O)[C@H](C)[C@@H](O)[C@@H](C)/C=C/C=C(/C)C(=O)NC3=C(N4CCOCC4)C(=O)c4c(c(O)c(C)c5c4C(=O)[C@@](C)(O/C=C/[C@H](OC)[C@H]2C)O5)C3=O)cc1`: the MIC was 8 µg/mL in [2]; 16 µg/mL in [3]; 1 µg/mL in data set [4]; above 64 µg/mL in data set [5]; 64 µg/mL in [6]; 0.06 µg/mL in [7].

As to `CO[C@H]1/C=C/O[C@@]2(C)Oc3c(C)c(O)c4c(c3C2=O)C(=O)C(N2CCOCC2)=C(NC(=O)/C(C)=C\C=C\[C@H](C)[C@H](O)[C@@H](C)[C@@H](O)[C@@H](C)[C@H](OC(=O)NCc2ccc(N(C)C)cc2)[C@@H]1C)C4=O`, the MIC in data set [2] stood at 8 µg/mL; in data set [3], 8 µg/mL; in data set [4], 1 µg/mL; in [5], 16 µg/mL; in data set [6], 8 µg/mL; in data set [7], 0.06 µg/mL.

`CO[C@H]1/C=C/O[C@@]2(C)Oc3c(C)c(O)c4c(O)c(c(/C=N/N5CCN(C)CC5)c(O)c4c3C2=O)NC(=O)/C(C)=C\C=C\[C@H](C)[C@H](O)[C@@H](C)[C@@H](O)[C@@H](C)[C@H](OC(C)=O)[C@@H]1C` [RIFAMPIN]: the “diameter of the inhibition zone (DIZ)” value in data set [1], in [8], in data set [9], in data set [10], in data set [11] and in data set [12] was 0 mm in each case. In addition, the “diameter of the inhibition zone (DIZ)” value in data set [13], in data set [14], in [15], in [16], in data set [17] and in data set [18] was 0 mm in each case. Also, the “diameter of the inhibition zone (DIZ)” value in data set [19], in [20], in data set [21], in data set [22], in data set [23] and in [24] was 0 mm in each case. Besides, the “diameter of the inhibition zone (DIZ)” value in [25] and in data set [26] was 0 mm throughout. Besides, the MIC in data set [2] is above 64 µg/mL; in data set [3], above 64 µg/mL; in data set [4], above 64 µg/mL; in data set [5] it was above 64 µg/mL; in [6], above 64 µg/mL; in data set [7], 32 µg/mL. Moreover, the “diameter of the inhibition zone (DIZ)” value in [27] and in data set [28] was “inactive” each time. Further, the Drug metabolism entry in [29] is “Metabolite_Notdetected”.

In the case of `CO[C@H]1/C=C/O[C@@]2(C)Oc3c(C)c(O)c4c(c3C2=O)C(=O)C(N2CCOCC2)=C(NC(=O)/C(C)=C\C=C\[C@H](C)[C@H](O)[C@@H](C)[C@@H](O)[C@@H](C)[C@H](OC(=O)NCCN(C(C)C)C(C)C)[C@@H]1C)C4=O`, the MIC stood at 1 µg/mL in data set [2]; 0.25 µg/mL in [3]; 8 µg/mL in data set [4]; 1 µg/mL in [5]; 0.5 µg/mL in [6].

As for `COc1ccccc1-c1cc(CNC(=O)O[C@H]2[C@H](C)[C@H](O)[C@H](C)[C@@H](O)[C@@H](C)/C=C/C=C(/C)C(=O)NC3=C(N4CCOCC4)C(=O)c4c(c(O)c(C)c5c4C(=O)[C@@](C)(O/C=C/[C@H](OC)[C@H]2C)O5)C3=O)on1`, the MIC was 64 µg/mL in data set [2]; 16 µg/mL in data set [3]; 0.25 µg/mL in [4]; 64 µg/mL in [5]; 64 µg/mL in data set [6]; 0.12 µg/mL in data set [7].

In the case of `CO[C@H]1/C=C/O[C@@]2(C)Oc3c(C)c(O)c4c(c3C2=O)C(=O)C(N2CCOCC2)=C(NC(=O)/C(C)=C\C=C\[C@H](C)[C@H](O)[C@@H](C)[C@@H](O)[C@@H](C)[C@H](OC(=O)NCc2cc(-c3ccccc3)no2)[C@@H]1C)C4=O`, the “diameter of the inhibition zone (DIZ)” value in [1] is 0 mm; in data set [8] it was 24 mm; in data set [9], 20 mm; in data set [10] it was 16 mm; in data set [11] it was 12 mm; in data set [12] it was 7 mm. In addition, the “diameter of the inhibition zone (DIZ)” value in data set [13] is given as 0 mm; in [14] it was 0 mm; in data set [15], 0 mm; in data set [16] it was 0 mm; in data set [17] it was above 30 mm; in data set [18], 26 mm. Besides, the “diameter of the inhibition zone (DIZ)” value in [19] is given as 21 mm; in data set [20] it was 17 mm; in [21] it was 13 mm; in data set [22], 7 mm; in [23], 0 mm; in data set [24] it was 0 mm. Also, the “diameter of the inhibition zone (DIZ)” value in data set [25] and in data set [26] was 0 mm throughout. Besides, the MIC was 0.5 µg/mL in [2]; 0.125 µg/mL in [3]; 0.0625 µg/mL in [4]; 0.5 µg/mL in data set [5]; 0.5 µg/mL in [6]. Moreover, the “diameter of the inhibition zone (DIZ)” value in [27] and in data set [28] was “inactive” each time.

These data come from ChEMBL document CHEMBL4433259, “Rifamycin derivatives active against pathogenic rapidly-growing mycobacteria” (Bioorg Med Chem Lett, 2019).
